Source: US20250312352A1, “GLP-1R MODULATING COMPOUNDS” (Gilead Sciences, Inc., priority 2021, published 2025)
pEC50: −log10 of the molar value.

Target: T1, GLP-1R (Homo sapiens, UniProt P43220)
T1 construct: host or cells: CHO cells
Assay: GLP-1R activation cAMP assay (Assay 1 or Assay 2)
Format: cell-based
Conditions: cAMP increase in CHO cells stably expressing GLP-1R; compounds run on one of the two cAMP assays
Experimental: GLP-1R ACTIVATION—cAMP Assay 1
GLP-1R activation by compounds of the present disclosure was quantified by measuring cAMP increase in CHO cells stably expressing GLP-1R (MultiSpan product #C1267-1a). The cells were harvested and plated in growth medium (DMEM/F-12 (Corning product #10-090-CV) supplemented with 10% FBS (HyClone product #SH30071-03), penicillin/streptomycin (Corning product #30-002CI) and 10 μg/ml puromycin (Gibco product #A11138-03)) at 1,000 cells/well in a 384-well plate (Greiner product #781080). The cells were then incubated overnight at 37° C., 5% CO2. The next day, the medium was removed and the cells were washed with DPBS (Corning product #21-031-CM) before adding the assay medium (HBSS, Corning product #21-023-CV) with 20 mM Hepes (Gibco product #15630-080) and 0.1% BSA (Rockland Immunochemicals product #BSA-1000)). Following the medium change, the cells were incubated for 1 hour at 37° C., 5% CO2. The tested GLP-1 compound was added to the cells in a 10-point dose response followed by a 30-minute incubation at 37° C., 5% CO2. cAMP concentration increase was then detected using Cisbio's cAMP Gs Dynamic Kit (product #62AM4PEC) according to the manufacturer's protocol. The response was plotted against the log of the agonist concentration and fitted to a sigmoidal equation to determine the EC50.
GLP-1R ACTIVATION—cAMP Assay 2
GLP-1R activation by small molecule agonists was quantified by measuring cAMP increase in CHO cells stably expressing GLP-1R (MultiSpan product #C1267-1a). 50 nL of agonists were pre-spotted in a 10-point dose response onto 384-well plate (Corning product #CL3826) using the Labcyte Echo System.

T1 sequence (P43220 24-463): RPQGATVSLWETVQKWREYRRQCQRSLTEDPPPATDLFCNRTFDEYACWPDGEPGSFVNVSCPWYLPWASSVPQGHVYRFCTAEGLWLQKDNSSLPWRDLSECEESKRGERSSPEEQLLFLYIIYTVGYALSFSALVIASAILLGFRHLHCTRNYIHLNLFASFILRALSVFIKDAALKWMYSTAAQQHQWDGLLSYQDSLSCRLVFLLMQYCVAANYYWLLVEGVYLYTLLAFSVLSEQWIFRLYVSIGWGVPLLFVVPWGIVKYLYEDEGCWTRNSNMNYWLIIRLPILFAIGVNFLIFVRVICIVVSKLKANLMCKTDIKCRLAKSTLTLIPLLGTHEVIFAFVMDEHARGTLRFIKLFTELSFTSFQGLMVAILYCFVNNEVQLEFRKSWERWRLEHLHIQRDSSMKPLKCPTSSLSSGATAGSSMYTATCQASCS

| SMILES | pEC50 |
| --- | --- |
| CC1(C)COC[C@H]1n1c(Cc2cc(F)c(-c3ccnc(OCc4sc(C#N)cc4F)n3)cc2F)nc2ccc(C(=O)O)cc21 [Example 267, 2-[[4-[2-[(5-cyano-3-fluoro-2-thienyl)methoxy]pyrimidin-4-yl]-2,5-difluoro-phenyl]methyl]-3-[(3S)-4,4-dimethyltetrahydrofuran-3-yl]benzimidazole-5-carboxylic acid] | 9.40 |
| Cc1nnc(COc2cccc(-c3cc(F)c(Cc4nc5ccc(C(=O)O)cc5n4C[C@@H]4CCO4)cc3F)n2)s1 [Example 308, (S)-2-(2,5-difluoro-4-(6-((5-methyl-1,3,4-thiadiazol-2-yl)methoxy)pyridin-2-yl)benzyl)-1-(oxetan-2-ylmethyl)-1H-benzo[d]imidazole-6-carboxylic acid] | 9.17 |
| O=C(O)c1ccc2nc(Cc3cc(F)c(-c4cccc(OCc5cn6cccnc6n5)n4)cc3F)n(C[C@@H]3CCO3)c2c1 [Example 29, (S)-2-(2,5-difluoro-4-(6-(imidazo[1,2-a]pyrimidin-2-ylmethoxy)pyridin-2-yl)benzyl)-1-(oxetan-2-ylmethyl)-1H-benzo[d]imidazole-6-carboxylic acid] | 7.86 |
| Cn1cncc1C#Cc1cnc(COc2cccc(-c3cc(F)c(Cc4nc5ccc(C(=O)O)cc5n4C[C@@H]4CCO4)cc3F)n2)c(F)c1 [Example 293, (S)-2-(2,5-difluoro-4-(6-((3-fluoro-5-((1-methyl-1H-imidazol-5-yl)ethynyl)pyridin-2-yl)methoxy)pyridin-2-yl)benzyl)-1-(oxetan-2-ylmethyl)-1H-benzo[d]imidazole-6-carboxylic acid] | 9.74 |
| NC(=O)c1nc(COc2cccc(-c3cc(F)c(Cc4nc5ccc(C(=O)O)cc5n4C[C@@H]4CCO4)cc3F)n2)cs1 [Example 8, (S)-2-(4-(6-((2-carbamoylthiazol-4-yl)methoxy)pyridin-2-yl)-2,5-difluorobenzyl)-1-(oxetan-2-ylmethyl)-1H-benzo[d]imidazole-6-carboxylic acid] | 9.04 |
| O=C(O)c1ccc2nc(Cc3cc(F)c(-c4cccc(OCc5ccc(C#Cc6cc[nH]c(=O)c6)cc5F)n4)cc3F)n(C[C@@H]3CCO3)c2c1 [Example 356, (S)-2-(2,5-difluoro-4-(6-((2-fluoro-4-((2-oxo-1,2-dihydropyridin-4-yl)ethynyl)benzyl)oxy)pyridin-2-yl)benzyl)-1-(oxetan-2-ylmethyl)-1H-benzo[d]imidazole-6-carboxylic acid] | 10.00 |
| O=C(O)c1ccc2nc(Cc3cc(F)c(-c4cccc(OCc5ncc(-c6cnco6)s5)n4)cc3F)n(C[C@@H]3CCO3)c2c1 [Example 93, (S)-2-(2,5-difluoro-4-(6-((5-(oxazol-5-yl)thiazol-2-yl)methoxy)pyridin-2-yl)benzyl)-1-(oxetan-2-ylmethyl)-1H-benzo[d]imidazole-6-carboxylic acid] | 10.22 |
| Cn1cc(C#Cc2cnc(COc3cccc(-c4cc(F)c(Cc5nc6ccc(C(=O)O)cc6n5C[C@@H]5CCO5)cc4F)n3)s2)cn1 [Example 114, (S)-2-(2,5-difluoro-4-(6-((5-((1-methyl-1H-pyrazol-4-yl)ethynyl)thiazol-2-yl)methoxy)pyridin-2-yl)benzyl)-1-(oxetan-2-ylmethyl)-1H-benzo[d]imidazole-6-carboxylic acid] | 9.96 |
| O=C(O)c1ccc2nc(Cc3cc(F)c(-c4cccc(OCc5cc6n(n5)CCCC6)n4)cc3F)n(C[C@@H]3CCO3)c2c1 [Example 70, (S)-2-(2,5-difluoro-4-(6-((4,5,6,7-tetrahydropyrazolo[1,5-a]pyridin-2-yl)methoxy)pyridin-2-yl)benzyl)-1-(oxetan-2-ylmethyl)-1H-benzo[d]imidazole-6-carboxylic acid] | 8.71 |
| CC1(C)COC[C@H]1n1c(Cc2cc(F)c(-c3ccc(F)c(OCc4ncc(C(F)F)s4)n3)cc2F)nc2ccc(C(=O)O)cc21 [Example 416, (S)-2-(4-(6-((5-(difluoromethyl)thiazol-2-yl)methoxy)-5-fluoropyridin-2-yl)-2,5-difluorobenzyl)-1-(4,4-dimethyltetrahydrofuran-3-yl)-1H-benzo[d]imidazole-6-carboxylic acid] | 9.47 |
| COc1nnc(COc2nc(-c3cc(F)c(Cc4nc5c(F)cc(C(=O)O)cc5n4CC4(CF)CC4)cc3F)ccc2F)s1 [Example 410, 2-(2,5-difluoro-4-(5-fluoro-6-((5-methoxy-1,3,4-thiadiazol-2-yl)methoxy)pyridin-2-yl)benzyl)-4-fluoro-1-((1-(fluoromethyl)cyclopropyl)methyl)-1H-benzo[d]imidazole-6-carboxylic acid] | 9.26 |
| COc1cc(C#Cc2cnn(C)c2)ncc1COc1cccc(-c2cc(F)c(Cc3nc4ccc(C(=O)O)cc4n3C[C@@H]3CCO3)cc2F)n1 [Example 145, (S)-2-(2,5-difluoro-4-(6-((4-methoxy-6-((1-methyl-1H-pyrazol-4-yl)ethynyl)pyridin-3-yl)methoxy)pyridin-2-yl)benzyl)-1-(oxetan-2-ylmethyl)-1H-benzo[d]imidazole-6-carboxylic acid] | 9.60 |
| O=C(O)c1ccc2nc(Cc3cc(F)c(-c4cccc(OCc5nnc(Cl)s5)n4)cc3F)n(C[C@@H]3CCO3)c2c1 [Example 49, (S)-2-(4-(6-((5-chloro-1,3,4-thiadiazol-2-yl)methoxy)pyridin-2-yl)-2,5-difluorobenzyl)-1-(oxetan-2-ylmethyl)-1H-benzo[d]imidazole-6-carboxylic acid] | 9.19 |
| Cn1cncc1-c1cnc(COc2cccc(-c3cc(F)c(Cc4nc5ccc(C(=O)O)cc5n4C[C@@H]4CCO4)cc3F)n2)s1 [Example 102, (S)-2-(2,5-difluoro-4-(6-((5-(1-methyl-1H-imidazol-5-yl)thiazol-2-yl)methoxy)pyridin-2-yl)benzyl)-1-(oxetan-2-ylmethyl)-1H-benzo[d]imidazole-6-carboxylic acid] | 7.87 |
| O=C(O)c1ccc2nc(Cc3cc(F)c(-c4cccc(OCc5ncc(OCC(F)(F)F)s5)n4)cc3F)n(C[C@@H]3CCO3)c2c1 [Example 57, (S)-2-(2,5-difluoro-4-(6-((5-(2,2,2-trifluoroethoxy)thiazol-2-yl)methoxy)pyridin-2-yl)benzyl)-1-(oxetan-2-ylmethyl)-1H-benzo[d]imidazole-6-carboxylic acid] | 9.14 |
| N#CC1(NC(=O)c2cc(Cl)c(COc3cccc(-c4cc(F)c(Cc5nc6ccc(C(=O)O)cc6n5C[C@@H]5CCO5)cc4F)n3)cn2)CC1 [Example 184, (S)-2-(4-(6-((4-chloro-6-((1-cyanocyclopropyl)carbamoyl)pyridin-3-yl)methoxy)pyridin-2-yl)-2,5-difluorobenzyl)-1-(oxetan-2-ylmethyl)-1H-benzo[d]imidazole-6-carboxylic acid] | 9.92 |
| Cn1cc(C#Cc2ccc(COc3cccc(-c4cc(F)c(Cc5nc6ccc(C(=O)O)cc6n5C[C@@H]5CCO5)cc4F)n3)c(F)c2)cn1 [Example 132, (S)-2-(2,5-difluoro-4-(6-((2-fluoro-4-((1-methyl-1H-pyrazol-4-yl)ethynyl)benzyl)oxy)pyridin-2-yl)benzyl)-1-(oxetan-2-ylmethyl)-1H-benzo[d]imidazole-6-carboxylic acid] | 9.77 |
